Ten compounds from patent publication US9695129B2, “Parasiticidal compositions comprising benzimidazole derivatives, methods and uses thereof” (MERIAL INC., priority 2012, dated 2017) can be followed below.

Structures are written as SMILES. Where two headings read alike, the source gives them in different places.

Holding throughout (design): species or system Fasciola hepatica
In assay [1] the test system is adult F. hepatica. As to the kind of experiment: In vitro test on adult F. hepatica (viability scale, effective concentration). As to conditions: Fasciola hepatica, read-out: Effective in vitro concentration. The protocol: Representative compounds of formula (I), formula (II), and formula (III) were tested in vitro against F. hepatica as follows. Adult F. hepatica (fluke) were collected from infected bovine livers obtained from a local abattoir (Basel, Switzerland). The worms were quickly washed with 0.9% (w/v) NaCl and placed in 6 or 12-well plates (Costar). Culture medium in each well contained RPMI 1640 (Gibco) at 37° C., which was supplemented with antibiotics (50 μg/ml streptomycin and 50 IU/ml penicillin; Gibco) and 80 μg/ml of a haemin solution. The haemin solution was prepared as follows: 5 mg haemin was dissolved in 1 ml of 0.1M aqueous solution of NaOH, and 3.95 ml of PBS (pH=7.4) and 0.05 ml of 1M HCl were added to adjust the pH to 7.1-7.4 (Keiser and Morson, 2008). Cultures were kept at 37° C. in an atmosphere of 5% CO2. To monitor the temporal effects of test compounds in vitro, 3 flukes were incubated for 72 h in the presence of 50 or 100 μg/ml of each test compound. At 24, 48, and 72 h, worms were examined using a dissecting microscope. For the adult worms, a viability scale ranging from 4 (normal movements) to 1 (death; no movement observed for two min using a microscope) was used.
Table 1 lists representative compounds of formula (I) of the present invention and their effective in vitro concentrations against F. hepatica. All compounds were tested in vitro on the adult stage of F. hepatica as described above. Each data point refers to at least two independent experiments. For Table 1, R2 is H, R4 is Cl and R5 is H.
Table 2 lists representative compounds of formula (II) of the present invention and their effective in vitro concentrations against F. hepatica. All compounds were tested in vitro on the adult stage of F. hepatica as described above. Each data point refers to at least two independent experiments. For Table 2 compounds, the 2-position of the benzimidazole ring is methylthio, R6 is H and R9 is H.
Table 3 lists representative compounds of formula (III) of the present invention and their effective in vitro concentrations against F. hepatica. All compounds were tested in vitro on the adult stage of F. hepatica as described above. Each data point refers to at least two independent experiments. For Table 3, the 2-position of the benzimidazole ring is trifluoromethylthio, R10 is H and R13 is H.

Assay [2] has as its system F. hepatica resistant to triclabendazole (Oberon isolate of Australia). As to the kind of experiment: In vitro test against triclabendazole-resistant F. hepatica (Oberon isolate), movement score. As to conditions: for Fluke activity score: scale 3 (very active) to 0 (death).
In assay [3] the test system is adult F. hepatica. The assay can be described thus: In vivo test in female Wistar rats harboring adult F. hepatica. To be noted: single oral dose 100 mg/kg, one week after dosing; for Number of living worms Ø = average: control 6.3; for Worm burden reduction %: vs untreated control. The protocol: Additionally, five compounds were tested in vivo in female Wistar rats against an untreated control. Rats were kept in groups of five in type-4 Makrolon cages under environmentally controlled conditions (temperature, 22° C.; humidity, 70%; light/dark cycle, 12/12 h) with free access to water and rodent food. F. hepatica metacercariae (Pacific Northwest wild strain) were purchased from Baldwin Aquatics (Monmouth, Oreg.). After one week of adaptation, each rat was infected by oral gavage with approximately 25 metacercariae.
Three rats harboring adult F. hepatica (>8 weeks postinfection) were used to test each of five compounds. The rats were given a single oral dose of 100 mg/kg with each of test compounds 273, 274, 282, 290 and 303. Untreated rats (n=3) served as controls. Dosing formulations consisted of 300 ul Tween 80:ethanol (1:1) and 2.7 ml water. One week after dosing the animals were euthanized and live worms recovered from excised bile ducts.

Where [4] appears, read: Table 1, formula (I), adult flukes incubated up to 72 h, at least two independent experiments.

Consider `FC(F)(F)C(F)(F)C(F)(F)c1nc2cc(Cl)c(Oc3cccc(Cl)c3Cl)cc2[nH]1` [Compound 140, 6-chloro-5-(2,3-dichlorophenoxy)-2-heptafluoropropylbenzimidazole], for which, in the assay on adult F. hepatica [1] (72 h), the minimal effective concentration amounted to 5 µg/mL. The Fluke activity score in assay [2] (20 μg/ml, 0 h) was determined as 3; in assay [2] (20 μg/ml, 24 h), 0.5; in assay [2] (20 μg/ml, 48 h) it was 0; in assay [2] (20 μg/ml, 72 h), 0.

Turning to `FC(F)(F)C(F)(F)C(F)(F)c1nc2cc(Cl)c(Oc3ccc(Cl)cc3Cl)cc2[nH]1` [Compound 273, 5-chloro-6-(2,4-dichlorophenoxy)-2-(heptafluoropropyl)-1H-1,3-benzodiazole], the minimal effective concentration with adult F. hepatica [1] (72 h) was 5 µg/mL. Moreover, the Fluke activity score in assay [2] (10 μg/ml, 0 h) amounted to 3; in assay [2] (10 μg/ml, 24 h) it was 0; in assay [2] (10 μg/ml, 48 h) it was 0; in assay [2] (10 μg/ml, 72 h) it was 0; in assay [2] (20 μg/ml, 0 h) it was 3; in assay [2] (20 μg/ml, 24 h), 0. Also, the Fluke activity score in assay [2] (20 μg/ml, 48 h) is listed as 0; in assay [2] (20 μg/ml, 72 h), 0. In assay [2] (even at 10 μg/ml, compared with #114, #130, #140 and 50 μg/ml triclabendazole/sulfoxide), the “Efficacy against triclabendazole-resistant flukes, in words” value was “particularly efficacious”. The “No. of rats cured/No. of rats investigated” value in the assay with adult F. hepatica [3] was 1/2. Moreover, in the assay with adult F. hepatica [3], the “Number of living worms Ø = average” value is 1.5. For the same compound, the “Worm burden reduction %” value in the assay with adult F. hepatica [3] came out at 76.2%.

For `FC(F)(F)c1nc2cc(Cl)c(-c3ccc(Cl)cc3)cc2[nH]1` [Compound 130, 6-chloro-5-(4-chlorophenyl)-2-trifluoromethylbenzimidazole], in the assay on adult F. hepatica [1] (72 h), the minimal effective concentration was 2.5 µg/mL. The Fluke activity score in assay [2] (20 μg/ml, 0 h) is 3; in assay [2] (20 μg/ml, 24 h), 0.25; in assay [2] (20 μg/ml, 48 h), 0; in assay [2] (20 μg/ml, 72 h), 0.

For the compound `FC(F)(F)c1ccc(-c2cc3[nH]c(C(F)(F)C(F)(F)C(F)(F)F)nc3cc2Cl)c(C(F)(F)F)c1` [Compound 303, 6-[2,4-bis(trifluoromethyl)phenyl]-5-chloro-2-(heptafluoropropyl)-1H-1,3-benzodiazole], the minimal effective concentration in the assay with adult F. hepatica [1] (setting [4]) was determined as 20 µg/mL. In the assay with adult F. hepatica [3], the “No. of rats cured/No. of rats investigated” value is 1/3, the “Number of living worms Ø = average” value came to 1.3 and the “Worm burden reduction %” value is given as 79.4%.

With `FC(F)(F)c1ccc(-c2cc3[nH]c(C(F)(F)C(F)(F)C(F)(F)F)nc3cc2Cl)cc1` [Compound 290, 5-chloro-2-(heptafluoropropyl)-6-[4-(trifluoromethyl)phenyl]-1H-1,3-benzodiazole], the minimal effective concentration in the assay with adult F. hepatica [1] (setting [4]) stood at 50 µg/mL. Further, in the assay on adult F. hepatica [3], the “No. of rats cured/No. of rats investigated” value is on record as 1/3, the “Number of living worms Ø = average” value came out at 3.3 and the “Worm burden reduction %” value is 47.6%.

On to `C[S+]([O-])c1nc2cc(Oc3cccc(Cl)c3Cl)c(Cl)cc2[nH]1` (stereo not shown) [TBZ-SOX, triclabendazole/sulfoxide, reference compound], for which the Fluke activity score worked out at 3 in assay [2] (50 μg/ml, 0 h); 3 in assay [2] (50 μg/ml, 24 h); 2.5 in assay [2] (50 μg/ml, 48 h); 2 in assay [2] (50 μg/ml, 72 h).

Take `FC(F)(F)C(F)(F)C(F)(F)c1nc2cc(Cl)c(-c3ccc(Cl)cc3)cc2[nH]1` [Compound 274, 5-chloro-6-(4-chlorophenyl)-2-(heptafluoropropyl)-1H-1,3-benzodiazole]: the minimal effective concentration with adult F. hepatica [1] (72 h) is 5 µg/mL. For the same compound, in the assay on adult F. hepatica [3], the “No. of rats cured/No. of rats investigated” value is listed as 1/3 and the “Number of living worms Ø = average” value is recorded as 2.3.

Consider `CCCCCCc1cc2[nH]c(SC)nc2cc1Cl` [Compound 024, 6-chloro-5-hexyl-2-methylthiobenzimidazole], for which the minimal effective concentration in the assay on adult F. hepatica [1] (Table 2, formula (II), adult flukes incubated up to 72 h, at least two independent experiments) was 50 µg/mL.

For `FC(F)(F)c1nc2cc(Cl)c(-c3ccc(Cl)c(Cl)c3)cc2[nH]1` [Compound 258, 6-chloro-5-(3,4-dichlorophenyl)-2-trifluoromethylbenzimidazole], the minimal effective concentration with adult F. hepatica [1] (setting [4]) was 5 µg/mL.

As for `Fc1ccc(-c2cc3[nH]c(C(F)(F)C(F)(F)C(F)(F)F)nc3cc2Cl)cc1` [Compound 282, 5-chloro-6-(4-fluorophenyl)-2-(heptafluoropropyl)-1H-1,3-benzodiazole], in the assay with adult F. hepatica [1] (72 h), the minimal effective concentration is under 2.5 µg/mL. In addition, in the assay with adult F. hepatica [3], the “No. of rats cured/No. of rats investigated” value was 2/3 and the “Number of living worms Ø = average” value amounted to 2.
